Assay results published in PMC5836727 (ACS chemical biology, 2017).

Key:
[1] = target: T1, CG6178 (Drosophila melanogaster, UniProt Q9VCC6); assay: bioluminescence; assay type: biochemical; conditions: ATP, MgSO4, pH 7.4; 20 nM enzyme, 250 uM luciferin
T1 sequence (Q9VCC6 1-544): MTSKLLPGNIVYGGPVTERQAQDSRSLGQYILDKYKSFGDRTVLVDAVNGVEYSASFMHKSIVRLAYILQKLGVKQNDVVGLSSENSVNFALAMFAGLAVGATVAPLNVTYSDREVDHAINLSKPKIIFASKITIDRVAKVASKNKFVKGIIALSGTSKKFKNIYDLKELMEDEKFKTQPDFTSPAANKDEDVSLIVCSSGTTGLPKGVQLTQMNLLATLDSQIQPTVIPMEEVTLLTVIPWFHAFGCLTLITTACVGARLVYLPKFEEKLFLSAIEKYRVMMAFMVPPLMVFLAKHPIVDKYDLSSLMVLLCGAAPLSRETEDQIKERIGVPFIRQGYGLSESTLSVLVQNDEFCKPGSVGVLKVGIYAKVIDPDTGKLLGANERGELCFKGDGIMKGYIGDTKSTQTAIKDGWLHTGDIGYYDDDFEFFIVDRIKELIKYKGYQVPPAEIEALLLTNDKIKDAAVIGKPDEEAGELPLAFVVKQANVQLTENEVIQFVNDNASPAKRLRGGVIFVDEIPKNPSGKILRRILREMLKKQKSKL

[2] = target: T2, firefly luciferase (Photinus pyralis, UniProt P08659); assay: bioluminescence burst kinetics after rapid injection; assay type: biochemical; conditions: 100 nM enzyme, 100 uM substrate
T2 sequence (P08659 whole entry): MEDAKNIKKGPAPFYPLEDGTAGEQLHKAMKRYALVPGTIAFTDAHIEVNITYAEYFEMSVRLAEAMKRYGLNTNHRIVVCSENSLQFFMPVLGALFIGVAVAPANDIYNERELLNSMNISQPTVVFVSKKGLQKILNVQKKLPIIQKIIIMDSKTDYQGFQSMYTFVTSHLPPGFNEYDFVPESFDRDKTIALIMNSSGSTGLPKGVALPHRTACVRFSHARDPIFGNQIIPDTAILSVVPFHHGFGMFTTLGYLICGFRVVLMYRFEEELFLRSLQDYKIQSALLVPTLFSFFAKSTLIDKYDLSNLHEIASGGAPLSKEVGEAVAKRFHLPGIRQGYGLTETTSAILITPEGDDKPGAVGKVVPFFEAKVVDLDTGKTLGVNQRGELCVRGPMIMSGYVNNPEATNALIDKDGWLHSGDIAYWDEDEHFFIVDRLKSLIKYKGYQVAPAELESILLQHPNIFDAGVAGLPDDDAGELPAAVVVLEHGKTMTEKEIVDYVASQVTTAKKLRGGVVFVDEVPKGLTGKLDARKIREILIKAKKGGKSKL

[3] = target: T2, firefly luciferase; assay: bioluminescence of transfected live CHO cells; assay type: cell-based; conditions: 100 uM in HBSS

CN1CCc2cc3nc(C4=N[C@@H](C(=O)O)CS4)sc3cc21 [CycLuc2]
bioluminescence (photon flux, IVIS-100; burst kinetics) [1]: we found that CG6178 is capable of luciferase activity when treated with the synthetic luciferin CycLuc2

O=C(O)[C@H]1CSC(c2nc3ccc(O)cc3s2)=N1 [D-luciferin]
bioluminescence burst kinetics after rapid injection [2]: more pronounced with the tighter-binding synthetic luciferins than with D-luciferin

O=C(O)[C@H]1CSC(/C=C/c2ccc(N3CCCC3)cc2)=N1 [compound 5, (S,E)-2-(4-(pyrrolidin-1-yl)styryl)-4,5-dihydrothiazole-4-carboxylic acid]
bioluminescence of transfected live CHO cells [3]: all three are substrates for firefly luciferase and AbLL
